This note sets out measurements from US10683311B2 (priority 2015, dated 2020).

Broadly, the logP is the decadic logarithm of the partition coefficient of the neutral form, usually between octanol and water. For orientation: chromatographic logP means a lipophilicity value derived from retention on a column. Low values mean a more hydrophilic compound, high ones a more lipophilic compound.

Tested on in one data set: not listed separately
The data set can be described thus: log P by HPLC on reversed-phase column (C18), EEC Directive 79/831 Annex V.A8. Conditions: Method A: 40° C., 0.1% aqueous formic acid and acetonitrile. The data set is classed as physicochemical. How it is done:
In table 1, the log P values were determined in accordance with EEC Directive 79/831 Annex V.A8 by HPLC (High Performance Liquid Chromatography) on a reversed-phase column (C18), using the methods described below:
Method A: temperature: 40° C.; mobile phases: 0.1% aqueous formic acid and acetonitrile; linear gradient from 10% acetonitrile to 95% acetonitrile;
Method B: temperature: 40° C.; mobile phases: 0.001 molar ammonium acetate solution in water and acetonitrile; linear gradient from 10% acetonitrile to 95% acetonitrile.
Calibration was carried out using unbranched alkan-2-ones (comprising 3 to 16 carbon atoms) with known log P values (determination of the log P values by the retention times using linear interpolation between two successive alkanones). lambda-max-values were determined using UV-spectra from 200 nm to 400 nm and the peak values of the chromatographic signals.
The molecule `Cc1nc2ccccc2cc1Oc1cccc(OC(F)(F)F)c1Br` [IIa.25] had a lipophilicity (logP) of 4.30.

The data set is the same for the next values; noted with them: logP Method A.
Molecule `Fc1ccc2nc(Oc3ccccc3Br)cnc2c1F` [IIb.01] came in with a logP of 3.92.
The molecule `Cc1nc2c(F)c(F)ccc2nc1Oc1ccccc1Br` [IIb.02] returned a lipophilicity (logP) of 4.38.
`Cc1cccc(Br)c1Oc1nc2ccc(F)c(F)c2nc1C` [IIb.03]: the lipophilicity (logP) worked out at 4.80.
`Cc1nc2c(F)c(F)ccc2nc1Oc1c(F)cccc1Br` [IIb.04] showed a logP of 2.67.
`Cc1nc2c(F)c(F)ccc2nc1Oc1c(Cl)cccc1Br` [IIb.05] yielded a logP of 4.87.
In turn, `Cc1ccc(Oc2nc3ccc(F)c(F)c3nc2C)c(Br)c1` [IIb.09] gave a lipophilicity (logP) of 4.92.
Turning to `Cc1nc2c(F)c(F)ccc2nc1Oc1ccc(F)cc1Br` [IIb.10], the lipophilicity (logP) came out at 4.54.
As for `Cc1nc2c(F)c(F)ccc2nc1Oc1ccc(Cl)cc1Br` [IIb.11], the logP is listed as 5.16.
Turning to `Cc1cccc(Oc2nc3ccc(F)c(F)c3nc2C)c1Br` [IIb.12], the log partition coefficient (logP) was 4.85.
Molecule `COc1cccc(Oc2nc3ccc(F)c(F)c3nc2C)c1Br` [IIb.13] registered a logP of 4.19.
Regarding `Fc1cccc(Oc2cnc3ccccc3n2)c1Br` [IIb.14], the logP turned out to be 3.78.
For the molecule `Fc1cccc(Oc2cnc3c(F)c(F)ccc3n2)c1Br` [IIb.15], the logP is on record as 3.97.
The molecule `Cc1nc2c(F)c(F)ccc2nc1Oc1cccc(F)c1Br` [IIb.16] yielded a lipophilicity (logP) of 4.44.
On to `Cc1nc2ccccc2nc1Oc1cccc(F)c1Br` [IIb.17], for which the logP worked out at 4.11.
For `Cc1nc2c(F)c(F)ccc2nc1Oc1cccc(Cl)c1Br` [IIb.18], the logP is recorded as 4.82.
Molecule `N#Cc1cc(Br)c(Oc2cnc3c(F)c(F)ccc3n2)cc1F` [IIb.19] displayed a logP of 3.81.
The same measure, in the same setting: to `Cc1nc2c(F)c(F)ccc2nc1Oc1cc(C#N)ccc1Br` [IIb.20] belongs 4.03; to `N#Cc1ccc(F)c(Br)c1Oc1cnc2c(F)c(F)ccc2n1` [IIb.21], 3.72; to `Cc1nc2c(F)c(F)ccc2nc1Oc1cccc(C#N)c1Br` [IIb.22], 3.83.
Consider `Cc1nc2c(F)c(F)ccc2nc1Oc1cccc(OC(F)(F)F)c1Br` [IIb.23], for which the logP is on record as 5.08.
The same measure, in the same setting: to `Nc1ccccc1Nc1cnc2ccccc2c1` [IVa.01] belongs 1.28.
For `Cc1nc2ccccc2cc1Oc1cccc(F)c1N` [IVa.02], the logP worked out at 2.15.
Turning to `Nc1ccccc1Oc1cnc2c(F)c(F)ccc2c1` [IVa.03], the logP is 2.71.
Molecule `Nc1c(F)cccc1Oc1cnc2c(F)c(F)ccc2c1` [IVa.04] yielded a logP of 3.02.
The same measure, in the same setting: under `Cc1nc2c(F)c(F)ccc2cc1Oc1cccc(F)c1N` [IVa.06] stands 3.27; under `Cc1nc2ccccc2cc1Oc1ccccc1N` [IVa.07], 1.66.
`C[Si](C)(Cc1ccccc1)c1ccccc1O` [IXa.06]: the logP turned out to be 5.14.
As for `CCOc1nc2ccccc2cc1Oc1cccc(F)c1` [VIIa.02], the log partition coefficient (logP) is 4.74.
The same measure, in the same setting: under `CSc1nc2ccccc2cc1Oc1cccc(F)c1` [VIIa.03] stands 4.92.
In turn, `Cc1nc2ccccc2cc1Oc1cccc(F)c1` [VIIa.04] had a logP of 2.96.
`O=[N+]([O-])c1c(F)cccc1Oc1cnc2c(F)c(F)ccc2c1` [Va.01] showed a logP of 3.35.
Same read-out and setting: to `Cc1nc2c(F)c(F)ccc2cc1Oc1cccc(F)c1[N+](=O)[O-]` [Va.02] belongs 3.64; to `O=[N+]([O-])c1ccccc1Oc1cnc2c(F)c(F)ccc2c1` [Va.03], 3.06.
Still for that read-out and setting: under `O=[N+]([O-])c1c(F)cccc1Oc1cnc2ccccc2c1` [Va.05] stands 3.13; under `Cc1nc2ccccc2cc1Oc1cccc(F)c1[N+](=O)[O-]` [Va.06], 3.15.
In the case of `O=[N+]([O-])c1ccccc1Oc1cnc2ccccc2c1` [Va.07], the lipophilicity (logP) worked out at 1.62.
In the case of `Cc1nc2ccccc2cc1Oc1ccccc1[N+](=O)[O-]` [Va.08], the logP is 2.64.
In turn, `CC1(C)OB(Cc2ccccc2[Si](C)(C)C)OC1(C)C` [XIIa.01] showed a logP of 5.68.
Consider `C[Si](C)(c1ccccc1)c1ccccc1CBr` [XIa.03], for which the logP turned out to be 5.46.

Still in this data set, the particulars now being: logP Method B.
Molecule `CC[Si](C)(C)c1ccccc1O` [IXa.04] yielded a log partition coefficient (logP) of 3.90.

The same data set, now with this note: reversed-phase HPLC column (C18), Method A: 40° C., 0.1% aqueous formic acid and acetonitrile.
On to `COc1cccc(Oc2cc3ccc(F)c(F)c3nc2C)c1Br` [IIa.14, 3-(2-bromo-3-methoxyphenoxy)-7,8-difluoro-2-methylquinoline], for which the chromatographic logP was determined as 4.11.
Same read-out and setting: under `Fc1cccc(Oc2cnc3c(F)c(F)ccc3c2)c1Br` [IIa.15, 3-(2-bromo-3-fluorophenoxy)-7,8-difluoroquinoline] stands 3.9; under `Cc1nc2c(F)c(F)ccc2cc1Oc1cccc(F)c1Br` [IIa.16, 3-(2-bromo-3-fluorophenoxy)-7,8-difluoro-2-methylquinoline], 4.29; under `Cc1c(Oc2cccc(F)c2Br)cnc2ccccc12` [IIa.17, 3-(2-bromo-3-fluorophenoxy)-4-methylquinoline], 3.89.
The same measure, in the same setting: to `Cc1nc2ccccc2cc1Oc1cccc(F)c1Br` [IIa.18, 3-(2-bromo-3-fluorophenoxy)-2-methylquinoline] belongs 3.58.
The same measure, in the same setting: to `Fc1cccc(Oc2cc3ccccc3nc2C(F)F)c1Br` [IIa.19, 3-(2-bromo-3-fluorophenoxy)-2-(difluoromethyl)quinoline] belongs 3.99; to `Cc1nc2c(F)c(F)ccc2cc1Oc1cccc(Cl)c1Br` [IIa.20, 3-(2-bromo-3-chlorophenoxy)-7,8-difluoro-2-methylquinoline], 4.72.
The molecule `Cc1nc2ccccc2cc1Oc1cccc(Cl)c1Br` [IIa.21, 3-(2-bromo-3-chlorophenoxy)-2-methylquinoline] yielded a chromatographic logP of 3.99.
The molecule `Fc1cccc(Nc2cc3ccccc3nc2C(F)F)c1Br` [IIa.22, N-(2-bromo-3-fluorophenyl)-2-(difluoromethyl)quinolin-3-amine] came in with a chromatographic logP of 4.34.
Same read-out and setting: under `Fc1ccc(Oc2cnc3c(Cl)cccc3c2)c(Cl)c1` [IIa.23, 8-chloro-3-(2-chloro-4-fluorophenoxy)quinoline] stands 4.11; under `Cc1nc2c(F)c(F)ccc2cc1Oc1cccc(OC(F)(F)F)c1Br` [IIa.24, 3-[2-bromo-3-(trifluoromethoxy)phenoxy]-7,8-difluoro-2-methylquinoline], 4.9; under `Cc1nc2ccccc2cc1Oc1ccc(Cl)cc1Br` [IIa.26, 3-(2-bromo-4-chlorophenoxy)-2-methylquinoline], 4.13.
The same measure, in the same setting: under `Cc1nc2c(F)c(F)ccc2cc1Oc1ccccc1N` [IVa.05, 2-[(7,8-difluoro-2-methylquinolin-3-yl)oxy]aniline] stands 2.99; under `Fc1cccc(Oc2cc3ccccc3nc2Cl)c1` [VIIa.01, 2-chloro-3-(3-fluorophenoxy)quinoline], 3.99; under `Fc1cccc(Oc2cnc3ccccc3c2)c1` [VIIa.05, 3-(3-fluorophenoxy)quinoline], 3.21.
In turn, `[O-][n+]1cc(Oc2cccc(F)c2)cc2ccccc21` [VIIa.06, 3-(3-fluorophenoxy)quinoline 1-oxide] returned a chromatographic logP of 2.14.
Consider `Cc1nc2c(F)c(F)ccc2cc1Oc1ccccc1[N+](=O)[O-]` [Va.04, 7,8-difluoro-2-methyl-3-(2-nitrophenoxy)quinoline], for which the chromatographic logP amounted to 3.37.
Consider `CC(=O)COc1ccccc1[Si](C)(C)C` [XIV.01, 1-[2-(trimethylsilyl)phenoxy]acetone], for which the chromatographic logP stood at 1.39.
The molecule `C[Si](C)(c1ccc(Cl)cc1)c1ccccc1CBr` [XIa.06, [2-(bromomethyl)phenyl](4-chlorophenyl)dimethylsilane] showed a chromatographic logP of 5.94.

The data set is the same for the next values; noted with them: reversed-phase HPLC column (C18), logP Method A.
Turning to `Cc1nc2c(F)c(F)ccc2cc1Oc1ccccc1N` [IVa.05, 2-[(7,8-difluoro-2-methylquinolin-3-yl)oxy]aniline], the chromatographic logP came to 2.99.
Regarding `CC[Si](CC)(CC)c1ccccc1O` [IX.01A], the chromatographic logP turned out to be 4.72.
The same measure, in the same setting: to `CC[Si](CC)(CC)c1c(O)cccc1F` [IX.02A] belongs 4.69; to `OC(c1cccc(F)c1)c1cnc2ccccc2c1` (stereo not drawn) [VII.01A], 1.54; to `O=C(c1cccc(F)c1)c1cnc2ccccc2c1` [VII.02A], 2.73.
On the same count and under the same terms, to `Fc1cccc(Nc2cc3ccccc3nc2C(F)F)c1` [VII.03A] belongs 3.68; to `[O-][S+](c1cccc(F)c1)c1cnc2ccccc2c1` (stereo not drawn) [VII.04A], 2.1.
On the same count and under the same terms, to `O=S(=O)(c1cccc(F)c1)c1cnc2ccccc2c1` [VII.05A] belongs 2.68.
Take `Fc1cccc(Oc2cc3ccccc3nc2Cl)c1` [VIIa.01, 2-chloro-3-(3-fluorophenoxy)quinoline]: the chromatographic logP was 3.99.
The same measure, in the same setting: to `Fc1cccc(Oc2cnc3ccccc3c2)c1` [VIIa.05, 3-(3-fluorophenoxy)quinoline] belongs 3.21.
For the molecule `[O-][n+]1cc(Oc2cccc(F)c2)cc2ccccc21` [VIIa.06, 3-(3-fluorophenoxy)quinoline 1-oxide], the chromatographic logP is 2.14.
On to `Cc1nc2c(F)c(F)ccc2cc1Oc1ccccc1[N+](=O)[O-]` [Va.04, 7,8-difluoro-2-methyl-3-(2-nitrophenoxy)quinoline], for which the chromatographic logP came out at 3.42.
For the molecule `CC(=O)COc1ccccc1[Si](C)(C)C` [XIV.01, 1-[2-(trimethylsilyl)phenoxy]acetone], the chromatographic logP was 1.39.
On to `C[Si](C)(c1ccc(Cl)cc1)c1ccccc1CBr` [XIa.06, [2-(bromomethyl)phenyl](4-chlorophenyl)dimethylsilane], for which the chromatographic logP worked out at 5.94.

The test system of another data set is Pyricularia oryzae. The data set can be described thus: microbe, parasite or virus in culture. The data set is classed as cell-based. To be noted: 1 ppm; inhibition of fungal growth, liquid culture, 5 days incubation.
With `C[Si](C)(C)c1cc(F)ccc1Oc1ccnc2c(Cl)cccc12` [CMP2, 8-chloro-4-[4-fluoro-2-(trimethylsilyl)phenoxy]quinoline, reference compound], the Efficacy is listed as 0%.

The data set is the same for the next values; noted with them: 4 ppm of active ingredient; 5 days incubation.
Turning to `C[Si](C)(C)c1cc(F)ccc1Oc1ccnc2c(Cl)cccc12` [CMP2, 8-chloro-4-[4-fluoro-2-(trimethylsilyl)phenoxy]quinoline, reference compound], the “efficacy (inhibition of fungal growth)” value is reported as “much lower efficacy”.

The data set is the same for the next values; noted with them: 4 ppm; inhibition of fungal growth, liquid culture, 5 days incubation.
For `C[Si](C)(C)c1cc(F)ccc1Oc1ccnc2c(Cl)cccc12` [CMP2, 8-chloro-4-[4-fluoro-2-(trimethylsilyl)phenoxy]quinoline, reference compound], the Efficacy was 46%.

The data set is the same for the next values; noted with them: 20 ppm; inhibition of fungal growth, liquid culture, 5 days incubation.
As to `C[Si](C)(C)c1cc(F)ccc1Oc1ccnc2c(Cl)cccc12` [CMP2, 8-chloro-4-[4-fluoro-2-(trimethylsilyl)phenoxy]quinoline, reference compound], the Efficacy stood at 93%.
